Experimental data reported in patent US20150374646A1, “TREATMENT OF CANCER AND OTHER CONDITIONS USING A TRANSCRIPTION FACTOR MODULATOR” (C & C BIOPHARMA, LLC, priority 2013, published 2015).

Experiments:
MV4-11 cells = assay: Subcutaneous MV4-11 leukemia tumor growth in NOD/SCID mice (Example 5); type: in vivo; conditions: 100 mg/kg p.o. × 27 days
Protocol: Female Nonobese Diabetic/Severe Combined Immunodeficiency (NOD/SCID) mice that were 4-6 weeks old were used in the experiment. The mice were fed under specific pathogen free (SPF) conditions. Food and water were available to the mice at will. A suspension of 1×10^7 cells per mouse B-myelomonocytic leukemia MV4-11 cells (0.2 mL) in logarithmic phase were inoculated subcutaneously into the right back of the NOD/SCID nude mice.
The general conditions of the mice and the growth of the transplanted tumor were monitored. […] The control group received an intraperitoneal (IP) injection of 0.2 mL of solvent (20% DMSO, 80% of 20% w/v (2-hydroxypropyl)-β-cyclodextrin made in PBS). […] The high dosage group received an intraperitoneal injection of 50 mg/kg/day of YT30 (0.2 mL in volume) suspended in solvent (20% DMSO, 80% of 20% w/v (2-hydroxypropyl)-β-cyclodextrin made in PBS), while the low dosage group received IP injection of 25 mg/kg/day YT30 (0.2 mL in volume). Frequency of the administration was once per day and the experiment lasted 27 days after treatment started.
The body weights of the mice were recorded prior to the start of treatment and twice every week thereafter. Each mouse of every group was monitored daily for any other symptoms of side effects including change in behavior, activity or posture, areas of redness and swelling, and food and water withdrawal. Caliper measurements of the longest perpendicular tumor diameters were performed every 2 days to estimate the tumor volume; the following formula: 4π/3×(width/2)^2×(length/2) was used to calculate the three-dimensional volume of an ellipse. The tumor inhibition rate was calculated according to tumor volume: Tumor inhibition rate by size (%)=(Tumor volume of the control group−Tumor volume of the treated group)/Tumor volume of the control group×100. The mice were euthanized on the next day after the final injection and the subcutaneous tumor nodules were taken out intact and weighed. The tumor inhibition rate was calculated again according to tumor weight: Tumor inhibition rate by weight (%)=(Tumor weight of the control group−Tumor weight of the treated group)/Tumor weight of the control group×100).

K562 cells = assay: Subcutaneous K562 (CML) tumor growth in SCID mice (Example 6); type: in vivo; conditions: Imatinib 100 mg/kg p.o. × 16 days, SCID mice, K562 tumor
Protocol: Male Severe Combined Immunodeficiency (SCID) mice that were 4-6 weeks old were used in the experiment. The mice were fed under specific pathogen free (SPF) conditions. Food and water were available to the mice at will. A suspension of 8×10^6 chronic myelogenous leukemia K562 cells (0.2 mL) was inoculated subcutaneously into the right back of the SCID mice.
The general conditions of the mice and the growth of the transplanted tumor were monitored. […] The control group received an intraperitoneal injection (IP) of 0.2 mL solvent (20% DMSO, 80% of 20% w/v (2-hydroxypropyl)-β-cyclodextrin made in PBS). […] The YT30 treated groups received either intraperitoneal injection of 50 mg/kg/day of YT30 (0.2 mL in volume) suspended in solvent (20% DMSO, 80% of 20% w/v (2-hydroxypropyl)-β-cyclodextrin made in PBS) or oral gavage of 90 mg/kg/day YT30 in solvent (Cremophor RH40:TW80:PEG400 (2:1:1)). Frequency of the administration was once per day and the experiment lasted 16 days after initiation of the treatment.
The body weights of the mice were recorded prior to the start of treatment and twice every week thereafter. Each mouse of every group was monitored daily for any other symptoms of side effects including change in behavior, activity or posture, areas of redness and swelling, and food and water withdrawal. Caliper measurements of the longest perpendicular tumor diameters were performed every 2 days to estimate the tumor volume; the following formula: 4π/3×(width/2)^2×(length/2) was used to calculate the three-dimensional volume of an ellipse. The tumor inhibition rate was calculated according to tumor volume: Tumor inhibition rate by size (%)=(Tumor volume of the control group−Tumor volume of the treated group)/Tumor volume of the control group×100. The SCID mice were euthanized 2 hours after the final injection and the subcutaneous tumor nodules were taken out intact and weighed. The tumor inhibition rate was calculated again according to tumor weight: Tumor inhibition rate by weight (%)=(Tumor weight of the control group−Tumor weight of the treated group)/Tumor weight of the control group×100.

Nalm-6 [1] = assay: cells; conditions: Homo sapiens, NALM-6, 72 h, read-out: 72 hr growth inhibition (%)
Protocol: (§1) Various human leukemia cells were grown to the logarithmic growth phase and seeded into 24-well plates. […] Treated cells were further incubated for 72 hours and then were examined for cell proliferation. Cell proliferation was determined using the CellTiter-Glo Luminescence Cell Viability assay (Promega Corporation, Madison, Wis.) according to the manufacturer's protocol. The calculated inhibition rate was determined with the following formula: Inhibition rate (%)=(1−Luminescence of experimental group/Luminescence of control group)×100. IC50 is the calculated concentration of a compound needed to inhibit half of the maximum cell growth (equivalent to cell growth in control group) based on the corresponding dose-response curve under the described experimental conditions.
Growth inhibition experiments were performed as previously described.

HL60 = assay: Leukemia cell growth inhibition, CellTiter-Glo (Example 1); type: cell-based, human; conditions: HL60 cells, 4 μM
Protocol: as §1

Nalm-6 [2] = assay: as above; type: cell-based, human; conditions: Nalm-6 cells, 4 μM
Protocol: as §1

REH = assay: as above; type: cell-based, human; conditions: REH cells, 4 μM
Protocol: as §1

Cc1ccc(NC(=O)c2ccc(CN3CCN(C)CC3)cc2)cc1Nc1nccc(-c2cccnc2)n1 [Imatinib, imatinib, reference compound]
Average body weight (g, x ± s) End point (MV4-11 cells): 22.06 ± 1.74 g | Body weight change (%) (MV4-11 cells): −1.0% | Tumor growth Inhibition by size (%) (MV4-11 cells): 52.5% | Tumor growth Inhibition by weight (%) (MV4-11 cells): 41.7% | Tumor size (mm^3) (MV4-11 cells): 1040.51 ± 422.38 mm^3 | Tumor weight (g, x ± s) (MV4-11 cells): 1.29 ± 0.42 g | Body weight change (K562 cells): −3.26% | Tumor growth inhibition by size (K562 cells): 43.97% | Tumor growth inhibition by weight (K562 cells): 27.91% | Average body weight, End point (K562 cells; end point, x ± s): 18.37 ± 0.54 g | Average body weight, Initial (K562 cells; initial (before treatment), x ± s): 18.99 ± 1.23 g | Tumor size (K562 cells; x ± s): 1744.05 ± 1049.95 mm^3 | inhibition at 5 µM (Nalm-6 [1]): 0% | inhibition at 10 µM (Nalm-6 [1]): 44%

Nc1ccccc1NC(=O)Cc1cccc(CC(=O)Nc2ccccc2N)c1 [YT19]
Growth inhibition (FIG. 1) (HL60): failed to inhibit cell growth | Growth inhibition (FIG. 1) (Nalm-6 [2]): failed to inhibit cell growth | Growth inhibition (FIG. 1) (REH): failed to inhibit cell growth
